This passage reports mutagenic call results from PubChem BioAssay AID1259407 (Chemical Carcinogenesis Research Information System (CCRIS), 2018).

The data set has as its system CCRIS mutagenicity, Ames/micronucleus/aberration tests. Put plainly: CCRIS mutagenicity studies.
Where [1] appears, read: Test System: AMES SALMONELLA TYPHIMURIUM, Strain/Indicator: TA98, Metabolic Activation: NONE, Method: STANDARD PLATE.
The mark [2] stands for this setting: Test System: AMES SALMONELLA TYPHIMURIUM, Strain/Indicator: TA100, Metabolic Activation: NONE, Method: STANDARD PLATE.
[3] abbreviates: Test System: AMES SALMONELLA TYPHIMURIUM, Strain/Indicator: TA1537, Metabolic Activation: NONE, Method: STANDARD PLATE.
Setting [4] is: Test System: AMES SALMONELLA TYPHIMURIUM, Strain/Indicator: TA98, Metabolic Activation: NONE, Method: PREINCUBATION

Structures are written as SMILES. The source made the active and inactive calls. The rule behind the calls is not given here.

Regarding `CCC1CCC(CCC(=O)[O-])C1.CCC1CCC(CCC(=O)[O-])CC1.[Cu+2]` (configuration not stated), the mutagenic call (End Point: In vitro chromosomal aberrations, Test System: Chinese hamster ovary (CHO) cells, Metabolic Activation: None) is “inactive; negative”; the mutagenic call (End Point: In vitro chromosomal aberrations, Test System: Chinese hamster ovary (CHO) cells, Metabolic Activation: Rat, Liver, S-9, Aroclor) is “inactive; negative”; the mutagenic call (Test System: AMES SALMONELLA TYPHIMURIUM, Strain/Indicator: TA98, Metabolic Activation: HAMSTER, LIVER, S-9, AROCLOR 1254 (10%), Method: STANDARD PLATE) is “inactive; negative”; the mutagenic call under setting [1] is “inactive; negative”; the mutagenic call (Test System: AMES SALMONELLA TYPHIMURIUM, Strain/Indicator: TA98, Metabolic Activation: RAT, LIVER, S-9, AROCLOR 1254 (10%), Method: STANDARD PLATE) was “inactive; negative”; the mutagenic call (Test System: AMES SALMONELLA TYPHIMURIUM, Strain/Indicator: TA100, Metabolic Activation: HAMSTER, LIVER, S-9, AROCLOR 1254 (10%), Method: STANDARD PLATE) was “inactive; negative”. Besides, the mutagenic call under setting [2] is “inactive; negative”; the mutagenic call (Test System: AMES SALMONELLA TYPHIMURIUM, Strain/Indicator: TA100, Metabolic Activation: RAT, LIVER, S-9, AROCLOR 1254 (10%), Method: STANDARD PLATE) is “inactive; negative”; the mutagenic call (Test System: AMES SALMONELLA TYPHIMURIUM, Strain/Indicator: TA1535, Metabolic Activation: HAMSTER, LIVER, S-9, AROCLOR 1254 (10%), Method: STANDARD PLATE) was “inactive; negative”; the mutagenic call (Test System: AMES SALMONELLA TYPHIMURIUM, Strain/Indicator: TA1535, Metabolic Activation: NONE, Method: STANDARD PLATE) is “inactive; negative”; the mutagenic call (Test System: AMES SALMONELLA TYPHIMURIUM, Strain/Indicator: TA1535, Metabolic Activation: RAT, LIVER, S-9, AROCLOR 1254 (10%), Method: STANDARD PLATE) is “inactive; negative”; the mutagenic call (Test System: AMES SALMONELLA TYPHIMURIUM, Strain/Indicator: TA1537, Metabolic Activation: HAMSTER, LIVER, S-9, AROCLOR 1254 (10%), Method: STANDARD PLATE) is “inactive; negative”. The mutagenic call under setting [3] was “inactive; negative”; the mutagenic call (Test System: AMES SALMONELLA TYPHIMURIUM, Strain/Indicator: TA1537, Metabolic Activation: RAT, LIVER, S-9, AROCLOR 1254 (10%), Method: STANDARD PLATE) was “inactive; negative”; the mutagenic call (Test System: AMES SALMONELLA TYPHIMURIUM, Strain/Indicator: TA1538, Metabolic Activation: HAMSTER, LIVER, S-9, AROCLOR 1254 (10%), Method: STANDARD PLATE) was “inactive; negative”; the mutagenic call (Test System: AMES SALMONELLA TYPHIMURIUM, Strain/Indicator: TA1538, Metabolic Activation: NONE, Method: STANDARD PLATE) was “inactive; negative”; the mutagenic call (Test System: AMES SALMONELLA TYPHIMURIUM, Strain/Indicator: TA1538, Metabolic Activation: RAT, LIVER, S-9, AROCLOR 1254 (10%), Method: STANDARD PLATE) is “inactive; negative”; the mutagenic call (Test System: MOUSE LYMPHOMA, Strain/Indicator: L5178Y (TK+/TK-), Metabolic Activation: RAT, LIVER, S-9, AROCLOR 1254, Method: SUSPENSION/PLATE) is “active; positive. reevaluation of results: positive”. In addition, the mutagenic call is “active; positive” (Test System: Mouse lymphoma, Strain/Indicator: L5178Y TK+/-, Metabolic Activation: Mammalian, liver, S-9) and “inactive; negative” (Test System: Mouse lymphoma, Strain/Indicator: L5178Y TK+/-, Metabolic Activation: None).

For the compound `Cc1cc(N)c(C)c2c1[nH]c1ccc(O)cc12`, the mutagenic call is, setting by setting: under setting [1], “inactive; negative”; (Test System: AMES SALMONELLA TYPHIMURIUM, Strain/Indicator: TA98, Metabolic Activation: RAT LIVER S-9, AROCLOR 1254, Method: STANDARD PLATE) “active; positive”; under setting [2], “inactive; negative”; (Test System: AMES SALMONELLA TYPHIMURIUM, Strain/Indicator: TA100, Metabolic Activation: RAT LIVER S-9, AROCLOR 1254, Method: STANDARD PLATE) “inactive; negative”.

Turning to `COc1cc(NS(C)(=O)=O)ccc1Nc1c2ccccc2nc2ccc(N=[N+]=[N-])cc12`, under setting [3], the mutagenic call was “active; positive”.

On to `CCCCCCc1ccc(-c2ccc(C#N)cc2)cc1`, for which the mutagenic call is, setting by setting: (Test System: AMES SALMONELLA TYPHIMURIUM, Strain/Indicator: TA97, Metabolic Activation: HAMSTER, LIVER, S-9, AROCLOR 1254 (10 OR 30%), Method: PREINCUBATION) “inactive; negative”; (Test System: AMES SALMONELLA TYPHIMURIUM, Strain/Indicator: TA97, Metabolic Activation: NONE, Method: PREINCUBATION) “inactive; negative”; (Test System: AMES SALMONELLA TYPHIMURIUM, Strain/Indicator: TA97, Metabolic Activation: RAT, LIVER, S-9, AROCLOR 1254 (10 OR 30%), Method: PREINCUBATION) “inactive; negative”; (Test System: AMES SALMONELLA TYPHIMURIUM, Strain/Indicator: TA98, Metabolic Activation: HAMSTER, LIVER, S-9, AROCLOR 1254 (10 OR 30%), Method: PREINCUBATION) “inactive; negative”; under setting [4], “inactive; negative”; (Test System: AMES SALMONELLA TYPHIMURIUM, Strain/Indicator: TA98, Metabolic Activation: RAT, LIVER, S-9, AROCLOR 1254 (10 OR 30%), Method: PREINCUBATION) “inactive; negative”. For the same compound, the mutagenic call was “inactive; negative” (Test System: AMES SALMONELLA TYPHIMURIUM, Strain/Indicator: TA100, Metabolic Activation: HAMSTER, LIVER, S-9, AROCLOR 1254 (10 OR 30%), Method: PREINCUBATION); “inactive; negative” (Test System: AMES SALMONELLA TYPHIMURIUM, Strain/Indicator: TA100, Metabolic Activation: NONE, Method: PREINCUBATION); “inactive; negative” (Test System: AMES SALMONELLA TYPHIMURIUM, Strain/Indicator: TA100, Metabolic Activation: RAT, LIVER, S-9, AROCLOR 1254 (10 OR 30%), Method: PREINCUBATION); “inactive; negative” (Test System: AMES SALMONELLA TYPHIMURIUM, Strain/Indicator: TA1535, Metabolic Activation: HAMSTER, LIVER, S-9, AROCLOR 1254 (10 OR 30%), Method: PREINCUBATION); “inactive; negative” (Test System: AMES SALMONELLA TYPHIMURIUM, Strain/Indicator: TA1535, Metabolic Activation: NONE, Method: PREINCUBATION); “inactive; negative” (Test System: AMES SALMONELLA TYPHIMURIUM, Strain/Indicator: TA1535, Metabolic Activation: RAT, LIVER, S-9, AROCLOR 1254 (10 OR 30%), Method: PREINCUBATION). The mutagenic call reads like this: (Test System: AMES SALMONELLA TYPHIMURIUM, Strain/Indicator: TA1537, Metabolic Activation: HAMSTER, LIVER, S-9, AROCLOR 1254 (10 OR 30%), Method: PREINCUBATION) “inactive; negative”; (Test System: AMES SALMONELLA TYPHIMURIUM, Strain/Indicator: TA1537, Metabolic Activation: NONE, Method: PREINCUBATION) “inactive; negative”; (Test System: AMES SALMONELLA TYPHIMURIUM, Strain/Indicator: TA1537, Metabolic Activation: RAT, LIVER, S-9, AROCLOR 1254 (10 OR 30%), Method: PREINCUBATION) “inactive; negative”.

As to `OC1c2c(ccc3c2ccc2ccccc23)C2OC2C1O` (configuration not stated), the mutagenic call is “active; positive” under setting [4] and “active; positive” (Test System: CHINESE HAMSTER V-79, Strain/Indicator: V-79/6-THIOGUANINE, Metabolic Activation: NONE).
